# Results: patent publication US20100048950A1 (BOEHRINGER INGELHEIM INTERNATIONAL GMBH, priority 2007, published 2010)
# Target: T1, human glucocorticoid receptor (GR) complex (Homo sapiens, UniProt P04150)
# T1 construct: made in house; host or cells: insect expression system (baculovirus lysate)
# T1 sequence (P04150 1-777): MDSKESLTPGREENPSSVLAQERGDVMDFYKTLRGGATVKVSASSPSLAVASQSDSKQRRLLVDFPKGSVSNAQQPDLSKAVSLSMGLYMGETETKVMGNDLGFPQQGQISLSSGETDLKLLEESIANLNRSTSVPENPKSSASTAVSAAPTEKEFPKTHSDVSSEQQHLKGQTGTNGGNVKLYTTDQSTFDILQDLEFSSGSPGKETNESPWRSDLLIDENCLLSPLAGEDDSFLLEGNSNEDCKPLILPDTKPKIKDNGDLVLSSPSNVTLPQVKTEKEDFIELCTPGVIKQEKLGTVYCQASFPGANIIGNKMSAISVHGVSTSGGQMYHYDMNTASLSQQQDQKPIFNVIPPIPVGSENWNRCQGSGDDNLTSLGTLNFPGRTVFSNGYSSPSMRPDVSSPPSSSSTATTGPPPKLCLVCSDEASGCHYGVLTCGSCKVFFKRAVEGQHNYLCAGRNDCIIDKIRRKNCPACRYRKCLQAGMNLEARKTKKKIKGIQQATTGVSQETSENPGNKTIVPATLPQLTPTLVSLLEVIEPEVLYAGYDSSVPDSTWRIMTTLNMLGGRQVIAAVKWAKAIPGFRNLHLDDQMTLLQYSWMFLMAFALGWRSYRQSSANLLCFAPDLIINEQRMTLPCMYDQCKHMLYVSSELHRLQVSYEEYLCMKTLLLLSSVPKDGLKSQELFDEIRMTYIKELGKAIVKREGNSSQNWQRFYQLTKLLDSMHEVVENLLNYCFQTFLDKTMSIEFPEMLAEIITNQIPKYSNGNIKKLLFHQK
# Assay: Glucocorticoid receptor competitive binding assay (fluorescence polarization)
# Conditions: competition with TAMRA-labeled dexamethasone, read-out: potent activity (IC50) in the GR binding assay
# Protocol: Compounds of the invention were evaluated for binding to the steroid receptor by a fluorescence polarization competitive binding assay. Detailed descriptions for preparation of recombinant glucocorticoid receptor (GR) complex used in the assay is described in U.S. Patent Application Publication No. US 2003/0017503, filed May 20, 2002, and incorporated herein by reference in its entirety. Preparation of the tetramethylrhodamine (TAMRA)-labeled dexamethasone probe was accomplished using a standard literature procedure (M. Pons et al., J. Steroid Biochem., 1985, 22, pp. 267-273).
# The affinity of the probe for the steroid receptor was then determined in a titration experiment. The fluorescence polarization value of the probe in assay buffer was measured on an SLM-8100 fluorometer using the excitation and emission maximum values described above. Aliquots of expression vector lysate were added and fluorescence polarization was measured after each addition until no further change in polarization value was observed. Non-linear least squares regression analysis was used to calculate the dissociation constant of the probe from the polarization values obtained for lysate binding to the probe.
# This assay uses fluorescence polarization (FP) to quantitate the ability of test compounds to compete with tetramethylrhodamine (TAMRA)-labeled dexamethasone for binding to a human glucocorticoid receptor (GR) complex prepared from an insect expression system. The assay buffer was: 10 mM TES, 50 mM KCl, 20 mM Na2MoO4.2H2O, 1.5 mM EDTA, 0.04% w/v CHAPS, 10% v/v glycerol, 1 mM dithiothreitol, pH 7.4. Test compounds were dissolved to 1 mM in neat DMSO and then further diluted to 10× assay concentration in assay buffer supplemented with 10% v/v DMSO. Test compounds were serially diluted at 10× assay concentrations in 10% DMSO-containing buffer in 96-well polypropylene plates. Binding reaction mixtures were prepared in 96-well black Dynex microtiter plates by sequential addition of the following assay components to each well: 15 μL of 10× test compound solution, 85 μL of GR-containing baculovirus lysate diluted 1:170 in assay buffer, and 50 μL of 15 nM TAMRA-labeled dexamethasone. Positive controls were reaction mixtures containing no test compound; negative controls (blanks) were reaction mixtures containing 0.7 μM to 2 μM dexamethasone. The binding reactions were incubated for 1 hour at room temperature and then read for fluorescence polarization in the LJL Analyst set to 550 nm excitation and 580 nm emission, with the Rhodamine 561 dichroic mirror installed. IC50 values were determined by iterative non-linear curve fitting of the FP signal data to a 4-parameter logistic equation.
row,Compound,IC50 [nM]
1,"Cc1cc(C)c(S(=O)(=O)NC(COc2ccc(Cl)c(C(F)(F)F)c2)C(F)(F)F)c(C)c1 (centres unmarked) [N-[1-(4-Chloro-3-trifluoromethylphenoxymethyl)-2,2,2-trifluoroethyl]-2,4,6-trimethylbenzenesulfonamide]",≤ 100
2,"Cc1cc(C)c(S(=O)(=O)NC(CNc2c(Cl)cc(Cl)cc2Cl)C(F)(F)F)c(C)c1 (centres unmarked) [2,4,6-Trimethyl-N-{2,2,2-trifluoro-1-[(2,4,6-trichlorophenylamino)methyl]ethyl}benzenesulfonamide]",≤ 100
3,"Cc1cc(C)c(S(=O)(=O)NC(COc2ccc3c(c2)CCC3)C(F)(F)F)c(C)c1 (centres unmarked) [2,4,6-Trimethyl-N-[2,2,2-trifluoro-1-(indan-5-yloxymethyl)ethyl]benzenesulfonamide]",≤ 100
4,"Cc1cc(C)c(S(=O)(=O)NC(CN(C)c2ccccc2)C(F)(F)F)c(C)c1 (centres unmarked) [2,4,6-Trimethyl-N-{2,2,2-trifluoro-1-[(methylphenylamino)methyl]ethyl}benzenesulfonamide]",≤ 100
5,"Cc1cc(C)c(S(=O)(=O)NC(COc2ccc(Br)cc2)C(F)(F)F)c(C)c1 (centres unmarked) [N-[1-(4-Bromophenoxymethyl)-2,2,2-trifluoroethyl]-2,4,6-trimethylbenzenesulfonamide]",≤ 100
6,"Cc1cc(C)c(S(=O)(=O)NC(CSc2cccc(OC(F)(F)F)c2)C(F)(F)F)c(C)c1 (centres unmarked) [2,4,6-Trimethyl-N-[2,2,2-trifluoro-1-(3-trifluoromethoxyphenylsulfanylmethyl)ethyl]benzenesulfonamide]",≤ 100
7,"COC(=O)c1cccc(NCC(NS(=O)(=O)c2c(C)cc(C)cc2C)C(F)(F)F)c1 (centres unmarked) [3-[3,3,3-Trifluoro-2-(2,4,6-trimethylbenzenesulfonylamino)propylamino]benzoic acid methyl ester]",≤ 100
8,"Cc1ccc(SCC(NS(=O)(=O)c2c(N)cc(Cl)cc2Cl)C(F)(F)F)cc1 (centres unmarked) [2-Amino-4,6-dichloro-N-(2,2,2-trifluoro-1-p-tolylsulfanylmethylethyl)benzenesulfonamide]",≤ 100
9,"Cc1cc(C)c(S(=O)(=O)NC(CSc2c(C)cccc2Cl)C(F)(F)F)c(C)c1 (centres unmarked) [N-[1-(2-Chloro-6-methylphenylsulfanylmethyl)-2,2,2-trifluoroethyl]-2,4,6-trimethylbenzenesulfonamide]",≤ 100
10,"Cc1cc(C)c(S(=O)(=O)NC(CNc2ccc(F)cc2F)C(F)(F)F)c(C)c1 (centres unmarked) [N-{1-[(2,4-Difluorophenylamino)methyl]-2,2,2-trifluoroethyl}-2,4,6-trimethylbenzenesulfonamide]",≤ 100
11,"Cc1cc(C)c(S(=O)(=O)NC(CNc2cccc(C(F)(F)F)c2)C(F)(F)F)c(C)c1 (centres unmarked) [2,4,6-Trimethyl-N-{2,2,2-trifluoro-1-[(3-trifluoromethylphenylamino)methyl]ethyl}benzenesulfonamide]",≤ 100
12,"Cc1cc(C)c(S(=O)(=O)NC(CSc2cc(Cl)ccc2Cl)C(F)(F)F)c(C)c1 (centres unmarked) [N-[1-(2,5-Dichlorophenylsulfanylmethyl)-2,2,2-trifluoroethyl]-2,4,6-trimethylbenzenesulfonamide]",≤ 100
13,"Cc1cc(C)c(S(=O)(=O)NC(CSc2ccccc2C(C)(C)C)C(F)(F)F)c(C)c1 (centres unmarked) [N-[1-(2-tert-Butylphenylsulfanylmethyl)-2,2,2-trifluoroethyl]-2,4,6-trimethylbenzenesulfonamide]",≤ 100
14,"CSc1cccc(NCC(NS(=O)(=O)c2c(C)cc(C)cc2C)C(F)(F)F)c1 (centres unmarked) [2,4,6-Trimethyl-N-{2,2,2-trifluoro-1-[(3-methylsulfanylphenylamino)methyl]ethyl}benzenesulfonamide]",≤ 100
15,"CCN(CC(NS(=O)(=O)c1c(C)cc(C)cc1C)C(F)(F)F)c1ccccc1 (centres unmarked) [N-{1-[(Ethylphenylamino)methyl]-2,2,2-trifluoroethyl}-2,4,6-trimethylbenzenesulfonamide]",≤ 100
16,"COC(=O)c1ccccc1N(C)CC(NS(=O)(=O)c1c(C)cc(C)cc1C)C(F)(F)F (centres unmarked) [2-{Methyl-[3,3,3-trifluoro-2-(2,4,6-trimethylbenzenesulfonylamino)propyl]amino}benzoic acid methyl ester]",≤ 100
17,"Cc1cc(C)c(S(=O)(=O)NC(COc2ccc(C#N)cc2)C(F)(F)F)c(C)c1 (centres unmarked) [N-[1-(4-Cyanophenoxymethyl)-2,2,2-trifluoroethyl]-2,4,6-trimethylbenzenesulfonamide]",≤ 100
18,"Cc1cc(C)c(S(=O)(=O)NC(COc2ccc(F)c(F)c2F)C(F)(F)F)c(C)c1 (centres unmarked) [2,4,6-Trimethyl-N-[2,2,2-trifluoro-1-(2,3,4-trifluorophenoxymethyl)ethyl]benzenesulfonamide]",≤ 100
19,"Cc1cc(C)c(S(=O)(=O)NC(CNc2cccc(C)c2C#N)C(F)(F)F)c(C)c1 (centres unmarked) [N-{1-[(2-Cyano-3-methylphenylamino)methyl]-2,2,2-trifluoroethyl}-2,4,6-trimethylbenzenesulfonamide]",≤ 100
20,"Cc1cc(C)c(S(=O)(=O)NC(CSc2ccc(C(C)C)cc2)C(F)(F)F)c(C)c1 (centres unmarked) [2,4,6-Trimethyl-N-[2,2,2-trifluoro-1-(4-isopropylphenylsulfanylmethyl)ethyl]benzenesulfonamide]",≤ 100
21,"Cc1cc(C)c(S(=O)(=O)NC(CNc2ccc(C#N)cc2Cl)C(F)(F)F)c(C)c1 (centres unmarked) [N-{1-[(2-Chloro-4-cyanophenylamino)methyl]-2,2,2-trifluoroethyl}-2,4,6-trimethylbenzenesulfonamide]",≤ 100
22,"Cc1cc(C)c(S(=O)(=O)NC(COc2cccc(Br)c2)C(F)(F)F)c(C)c1 (centres unmarked) [N-[1-(3-Bromophenoxymethyl)-2,2,2-trifluoroethyl]-2,4,6-trimethylbenzenesulfonamide]",≤ 100
23,"Cc1ccc(OCC(NS(=O)(=O)c2c(C)cc(C)cc2C)C(F)(F)F)cc1 (centres unmarked) [2,4,6-Trimethyl-N-(2,2,2-trifluoro-1-p-tolyloxymethylethyl)benzenesulfonamide]",≤ 100
24,"Cc1cc(C)c(S(=O)(=O)NC(CSc2ccccc2)C(F)(F)F)c(C)c1 (centres unmarked) [2,4,6-Trimethyl-N-(2,2,2-trifluoro-1-phenylsulfanylmethylethyl)benzenesulfonamide]",≤ 100
25,"Cc1cc(C)c(S(=O)(=O)NC(CNc2cc(Cl)ccc2C)C(F)(F)F)c(C)c1 (centres unmarked) [N-{1-[(5-Chloro-2-methylphenylamino)methyl]-2,2,2-trifluoroethyl}-2,4,6-trimethylbenzenesulfonamide]",≤ 100
26,"CC[C@@H](CNc1cccc2ccccc12)NS(=O)(=O)c1c(C)cc(C)cc1C [2,4,6-Trimethyl-N—[(S)-1-(naphthalen-1-ylaminomethyl)propyl]benzenesulfonamide]",≤ 100
27,"Cc1cc(C)c(S(=O)(=O)NC(CSc2ccccc2Cl)C(F)(F)F)c(C)c1 (centres unmarked) [N-[1-(2-Chlorophenylsulfanylmethyl)-2,2,2-trifluoroethyl]-2,4,6-trimethylbenzenesulfonamide]",≤ 100
28,"Cc1cc(C)c(S(=O)(=O)NC(CNc2cccc(Cl)c2C#N)C(F)(F)F)c(C)c1 (centres unmarked) [N-{1-[(3-Chloro-2-cyanophenylamino)methyl]-2,2,2-trifluoroethyl}-2,4,6-trimethylbenzenesulfonamide]",≤ 100
29,"COc1ccc(C(F)(F)F)cc1NCC(NS(=O)(=O)c1c(C)cc(C)cc1C)C(F)(F)F (centres unmarked) [2,4,6-Trimethyl-N-{2,2,2-trifluoro-1-[(2-methoxy-5-trifluoromethylphenylamino)methyl]ethyl}benzenesulfonamide]",≤ 100
